Results on two compounds are retold here after paper PMC4011845, “Stereoselectivity of Isoflurane in Adhesion Molecule Leukocyte Function-Associated Antigen-1” (PLoS ONE, 2014).

Assay [1] concerns the target T1, leukocyte function-associated antigen-1 (LFA-1) (Homo sapiens, UniProt P20701).
T1 construct: gene ITGAL; αL I domain residues 128-307 (fluorescence); with integrin β2 subunit (LFA-1 heterodimer)
The assay is described as follows: cell-free LFA-1:ICAM-1 binding assay ([…] 1-AMA); fluorescence probe on the αL I domain. It is filed as biochemical.

Assay [2] addresses T2, leukocyte function-associated antigen-1 (LFA-1) αL I domain (Homo sapiens, UniProt P20701).
T2 construct: gene ITGAL; αL I domain wild type, residues 128-307 of the integrin αL subunit
T2 sequence (P20701 153-332): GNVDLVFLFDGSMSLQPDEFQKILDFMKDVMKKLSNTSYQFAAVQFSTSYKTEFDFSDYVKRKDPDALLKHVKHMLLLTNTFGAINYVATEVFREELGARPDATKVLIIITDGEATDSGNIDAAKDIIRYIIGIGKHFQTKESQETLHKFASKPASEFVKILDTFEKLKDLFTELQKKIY
The assay is described as follows: 1-aminoanthracene fluorescence displacement; supported by cell-based ICAM-1 binding inhibition.

Molecules are shown by their SMILES.

T1 sequence (P20701 26-1090 limits assumed): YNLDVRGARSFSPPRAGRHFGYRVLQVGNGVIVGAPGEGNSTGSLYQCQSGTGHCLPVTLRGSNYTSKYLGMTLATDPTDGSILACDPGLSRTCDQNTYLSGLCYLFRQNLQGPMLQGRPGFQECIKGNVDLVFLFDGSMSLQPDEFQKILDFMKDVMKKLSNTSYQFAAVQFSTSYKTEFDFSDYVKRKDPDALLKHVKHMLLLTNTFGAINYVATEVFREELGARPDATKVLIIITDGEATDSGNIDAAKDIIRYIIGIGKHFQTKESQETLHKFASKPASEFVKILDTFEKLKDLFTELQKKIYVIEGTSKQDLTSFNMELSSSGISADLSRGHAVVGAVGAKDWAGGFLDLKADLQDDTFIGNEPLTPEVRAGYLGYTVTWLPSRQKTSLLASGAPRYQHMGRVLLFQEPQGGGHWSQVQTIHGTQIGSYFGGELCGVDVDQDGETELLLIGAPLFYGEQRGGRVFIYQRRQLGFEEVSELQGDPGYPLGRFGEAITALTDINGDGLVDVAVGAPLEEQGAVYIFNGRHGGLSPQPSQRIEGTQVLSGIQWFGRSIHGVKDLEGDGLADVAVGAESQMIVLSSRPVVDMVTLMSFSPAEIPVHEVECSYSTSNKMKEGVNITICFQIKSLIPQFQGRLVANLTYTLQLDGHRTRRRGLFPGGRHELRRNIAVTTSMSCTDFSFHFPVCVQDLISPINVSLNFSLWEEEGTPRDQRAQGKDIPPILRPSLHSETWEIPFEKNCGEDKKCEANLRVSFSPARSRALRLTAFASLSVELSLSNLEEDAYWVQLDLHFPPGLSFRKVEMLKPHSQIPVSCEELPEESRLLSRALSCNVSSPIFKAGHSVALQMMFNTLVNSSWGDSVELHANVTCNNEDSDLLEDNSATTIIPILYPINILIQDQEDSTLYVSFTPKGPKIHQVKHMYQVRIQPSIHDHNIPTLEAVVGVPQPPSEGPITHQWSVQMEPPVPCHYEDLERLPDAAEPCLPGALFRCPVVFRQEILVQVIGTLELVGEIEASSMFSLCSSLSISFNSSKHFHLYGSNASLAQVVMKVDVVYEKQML
T1 sequence (P05107 23-700 partner limits assumed): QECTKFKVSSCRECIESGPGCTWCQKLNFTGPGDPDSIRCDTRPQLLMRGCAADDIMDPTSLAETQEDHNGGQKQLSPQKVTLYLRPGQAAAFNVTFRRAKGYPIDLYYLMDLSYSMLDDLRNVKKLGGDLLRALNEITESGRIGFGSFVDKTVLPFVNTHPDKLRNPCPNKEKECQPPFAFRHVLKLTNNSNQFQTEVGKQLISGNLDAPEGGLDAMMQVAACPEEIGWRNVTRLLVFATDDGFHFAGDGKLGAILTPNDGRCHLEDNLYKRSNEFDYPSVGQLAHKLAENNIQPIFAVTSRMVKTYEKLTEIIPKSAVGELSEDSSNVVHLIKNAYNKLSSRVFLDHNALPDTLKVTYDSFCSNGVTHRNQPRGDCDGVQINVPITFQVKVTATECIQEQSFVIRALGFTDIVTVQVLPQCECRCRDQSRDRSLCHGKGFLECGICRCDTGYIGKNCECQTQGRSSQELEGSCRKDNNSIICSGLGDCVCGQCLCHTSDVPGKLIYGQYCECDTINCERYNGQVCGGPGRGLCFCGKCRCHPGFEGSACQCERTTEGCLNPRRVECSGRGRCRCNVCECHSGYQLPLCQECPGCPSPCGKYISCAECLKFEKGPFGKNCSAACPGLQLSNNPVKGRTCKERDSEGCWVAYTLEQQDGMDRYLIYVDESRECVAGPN

Consider `Nc1cccc2cc3ccccc3cc12` [1-AMA, 1-aminoanthracene], for which, in assay [1], the “cell-free LFA-1:ICAM-1 binding assay (10-25 μM 1-AMA); fluorescence probe on the” value is recorded as “As shown in Figure 2A , 1-AMA inhibited the binding of LFA-1 to its ligand ICAM-1”. As a reminder, the Kd is the constant that tells how readily two partners part at equilibrium. Higher therefore signals lower affinity. `FC(F)OC(Cl)C(F)(F)F` (centres unmarked) [S-isoflurane] yielded a Kd in assay [2] of 375 µM.
